“And” between values parts separate entries of the source, which are not always exact repeats. Equal values may be shown once. Read-outs that look alike come from different tables or passages of the source.
Experiment: Mouse brain penetration pharmacokinetics study (plasma and brain)
Assay type: in vivo, ICR male mice
Procedure: IV. Mouse Brain Penetration Pharmacokinetics Study
The test compounds used in this study were the compounds described in the specific examples of the present disclosure.
ICR male mice, N=3/group; sourced from Zhejiang Vital River Laboratory Animal Technology Co., Ltd.
3. Drug Preparation and Administration
Single oral (PO) administration to ICR mice: Compounds were dissolved in dimethyl sulfoxide, added to polyethylene glycol 400 and sterile water, and then adjusted to a clear solution with a small amount of 1 mol/L hydrochloric acid. After overnight fasting, the mice were orally gavaged with a dose of 30 mg/kg or 100 mg/kg.
Blood Collection and Processing: Mice were anesthetized with 5% isoflurane for 3-4 minutes until loss of consciousness. Whole blood (500 µL per time point) was collected via cardiac puncture using dipotassium EDTA (K2EDTA) as the anticoagulant. Plasma was separated by centrifugation ([…] for 5 minutes at 4°C). […] The samples were stored at -80°C.
Brain Tissue Collection: Following complete exsanguination, the thoracic cavity was opened with scissors. The right atrium was incised, and a needle was inserted into the left ventricle. Transcardial perfusion was performed with physiological saline (approximately 10 mL). Upon completion of perfusion, the skull was opened, and brain tissues were harvested and stored at -80°C.
Sample Preparation: A 30 µL plasma aliquot (consisting of 10 µL study sample and 20 µL blank plasma) was mixed with 200 µL of ice-cold acetonitrile containing an internal standard (IS). The mixture was vortexed for 30 seconds and then centrifuged at 4,000 g/min for 20 minutes. A 100 µL aliquot of the supernatant was transferred to a 96-well plate and mixed with 200 µL of ultrapure water. After vortexing for 30 seconds, a volume of 5 µL or 10 µL was injected into the LC-MS/MS system for analysis.
Brain Homogenate Preparation: Brain tissue samples were weighed and homogenized in phosphate-buffered saline (PBS) at a 1:4 ratio (tissue weight [g] to PBS volume [mL]). A 30 µL aliquot of brain homogenate (consisting of 10 µL study sample and 20 µL blank brain homogenate) was mixed with 200 µL of ice-cold acetonitrile containing an internal standard. The mixture was vortexed for 30 seconds and centrifuged at 4,000 g/min for 20 minutes. A 100 µL aliquot of the supernatant was transferred to a 96-well plate and mixed with 200 µL of ultrapure water. After vortexing for 30 seconds, a volume of 2 µL or 10 µL was injected into the LC-MS/MS system for analysis. Table 9: PK data

[1] = ICR male mice, PO(30mg/kg), sampling time 4 h, individual animals, 30 mg/kg
[2] = ICR male mice, PO(30mg/kg), sampling time 8 h, individual animals, 30 mg/kg
[3] = ICR male mice, PO(30mg/kg), sampling time 12 h, individual animals, 30 mg/kg
[4] = ICR male mice, PO(30mg/kg), sampling time 24 h, individual animals, 30 mg/kg
[5] = ICR male mice, PO(30mg/kg), sampling time 36 h, individual animals, 30 mg/kg
[6] = ICR male mice, PO(100mg/kg), sampling time 2 h, individual animals, 100 mg/kg
[7] = ICR male mice, PO(100mg/kg), sampling time 4 h, individual animals, 100 mg/kg
[8] = ICR male mice, PO(100mg/kg), sampling time 8 h, individual animals, 100 mg/kg
[9] = ICR male mice, PO(100mg/kg), sampling time 24 h, individual animals, 100 mg/kg

Q: Which results are given for `CN(C(=O)c1ccc2nc(N)c3cncn3c2c1)[C@@H]1COc2cc(C(F)(F)F)ccc21` [Example 107, (S)-4-amino-N-methy 1-N-(6-(trifluoromethy 1)-2,3-dihydrobenzofuran-3-yl)imidazo[1,5-a]quinoxaline-8-carboxamide]?
A: B/P ratio [1]: 0.122 and 0.152; Brain concentration [1]: 885 ng/g and 1290 ng/g and 1780 ng/g; Plasma concentration [1]: 10600 ng/mL and 11700 ng/mL; B/P ratio [2]: 0.227 and 0.305; Brain concentration [2]: 1700 ng/g and 2080 ng/g; Plasma concentration [2]: 7500 ng/mL and 6810 ng/mL; B/P ratio [3]: 0.435 and 0.320; Brain concentration [3]: 1040 ng/g and 855 ng/g; Plasma concentration [3]: 2390 ng/mL and 2670 ng/mL; B/P ratio [4]: 0.186 and 0.225; Brain concentration [4]: 47.6 ng/g and 65.0 ng/g and 142 ng/g; Plasma concentration [4]: 201 ng/mL and 349 ng/mL and 631 ng/mL; B/P ratio [5]: 0.653 and 0.705; Brain concentration [5]: 25.0 ng/g and 19.1 ng/g; Plasma concentration [5]: 38.3 ng/mL and 27.1 ng/mL; B/P ratio [6]: 0.114 and 0.195; Brain concentration [6]: 6650 ng/g and 4740 ng/g and 10800 ng/g; Plasma concentration [6]: 41500 ng/mL and 55400 ng/mL; B/P ratio [7]: 0.143 and 0.168; Brain concentration [7]: 4560 ng/g and 6100 ng/g; Plasma concentration [7]: 32000 ng/mL and 36400 ng/mL; B/P ratio [8]: 0.151 and 0.142; Brain concentration [8]: 1455 ng/g and 2480 ng/g; Plasma concentration [8]: 9620 ng/mL and 17500 ng/mL; B/P ratio [9]: 0.278 and 0.222; Brain concentration [9]: 356 ng/g and 434 ng/g; Plasma concentration [9]: 1280 ng/mL and 1950 ng/mL; Kp at 4 h (male, ICR, mouse, brain and plasma, po, 30 mg/kg, ICR male mice, PO(30mg/kg), sampling time 4 h, individual animals, read-out: B/P ratio): 0.118; Kp at 8 h (male, ICR, mouse, brain and plasma, po, 30 mg/kg, ICR male mice, PO(30mg/kg), sampling time 8 h, individual animals, read-out: B/P ratio): 0.286; Kp at 12 h (male, ICR, mouse, brain and plasma, po, 30 mg/kg, ICR male mice, PO(30mg/kg), sampling time 12 h, individual animals, read-out: B/P ratio): 0.365; Kp at 24 h (male, ICR, mouse, brain and plasma, po, 30 mg/kg, ICR male mice, PO(30mg/kg), sampling time 24 h, individual animals, read-out: B/P ratio): 0.237; Kp at 36 h (male, ICR, mouse, brain and plasma, po, 30 mg/kg, ICR male mice, PO(30mg/kg), sampling time 36 h, individual animals, read-out: B/P ratio): 0.605; Kp at 2 h (male, ICR, mouse, brain and plasma, po, 100 mg/kg, ICR male mice, PO(100mg/kg), sampling time 2 h, individual animals, read-out: B/P ratio): 0.171; Kp at 4 h (male, ICR, mouse, brain and plasma, po, 100 mg/kg, ICR male mice, PO(100mg/kg), sampling time 4 h, individual animals, read-out: B/P ratio): 0.168; Kp at 8 h (male, ICR, mouse, brain and plasma, po, 100 mg/kg, ICR male mice, PO(100mg/kg), sampling time 8 h, individual animals, read-out: B/P ratio): 0.2; Kp at 24 h (male, ICR, mouse, brain and plasma, po, 100 mg/kg, ICR male mice, PO(100mg/kg), sampling time 24 h, individual animals, read-out: B/P ratio): 0.321; concentration at 8 h (male, ICR, mouse, brain, po, 30 mg/kg, ICR male mice, PO(30mg/kg), sampling time 8 h, individual animals, read-out: Brain concentration): 1820 ng/g; concentration at 12 h (male, ICR, mouse, brain, po, 30 mg/kg, ICR male mice, PO(30mg/kg), sampling time 12 h, individual animals, read-out: Brain concentration): 1000 ng/g; concentration at 36 h (male, ICR, mouse, brain, po, 30 mg/kg, ICR male mice, PO(30mg/kg), sampling time 36 h, individual animals, read-out: Brain concentration): 30 ng/g; concentration at 4 h (male, ICR, mouse, brain, po, 100 mg/kg, ICR male mice, PO(100mg/kg), sampling time 4 h, individual animals, read-out: Brain concentration): 5550 ng/g; concentration at 8 h (male, ICR, mouse, brain, po, 100 mg/kg, ICR male mice, PO(100mg/kg), sampling time 8 h, individual animals, read-out: Brain concentration): 2460 ng/g; concentration at 24 h (male, ICR, mouse, brain, po, 100 mg/kg, ICR male mice, PO(100mg/kg), sampling time 24 h, individual animals, read-out: Brain concentration): 427 ng/g; concentration at 4 h (male, ICR, mouse, plasma, po, 30 mg/kg, ICR male mice, PO(30mg/kg), sampling time 4 h, individual animals, read-out: Plasma concentration): 7520 ng/mL; concentration at 8 h (male, ICR, mouse, plasma, po, 30 mg/kg, ICR male mice, PO(30mg/kg), sampling time 8 h, individual animals, read-out: Plasma concentration): 6370 ng/mL; concentration at 12 h (male, ICR, mouse, plasma, po, 30 mg/kg, ICR male mice, PO(30mg/kg), sampling time 12 h, individual animals, read-out: Plasma concentration): 2750 ng/mL; concentration at 36 h (male, ICR, mouse, plasma, po, 30 mg/kg, ICR male mice, PO(30mg/kg), sampling time 36 h, individual animals, read-out: Plasma concentration): 49.6 ng/mL; concentration at 2 h (male, ICR, mouse, plasma, po, 100 mg/kg, ICR male mice, PO(100mg/kg), sampling time 2 h, individual animals): 38800 ng/mL; concentration at 4 h (male, ICR, mouse, plasma, po, 100 mg/kg, ICR male mice, PO(100mg/kg), sampling time 4 h, individual animals, read-out: Plasma concentration): 33100 ng/mL; concentration at 8 h (male, ICR, mouse, plasma, po, 100 mg/kg, ICR male mice, PO(100mg/kg), sampling time 8 h, individual animals, read-out: Plasma concentration): 12300 ng/mL; concentration at 24 h (male, ICR, mouse, plasma, po, 100 mg/kg, ICR male mice, PO(100mg/kg), sampling time 24 h, individual animals, read-out: Plasma concentration): 1330 ng/mL; brain penetration (rodents (ICR mice), oral 30 mg/kg or 100 mg/kg, result in words): favorable brain penetration
